Assay [1] concerns HeLa. The assay is described as follows: Antimitotic activity in human HeLa cells assessed as increase in phosphohistone H3 level after 24 hrs by Hoechst 33342 staining. The assay is classed as functional.
The test system of assay [2] is HeLa. Kind of assay: Antimitotic activity in human HeLa cells assessed as tubulin intensity after 24 hrs by Hoechst 33342 staining. The assay is classed as functional. The following applies: read-out: MEC.
Assay [3] concerns HeLa. Kind of assay: Antimitotic activity in human HeLa cells assessed as cell density loss after 24 hrs by Hoechst 33342 staining. The assay is classed as functional, cell-based.
Assay [4] relates to HeLa. The assay is described as follows: Antimitotic activity in human HeLa cells assessed as chromatin condensation after 24 hrs by Hoechst 33342 staining. In kind it is functional. The following applies: read-out: MEC.
A short description of assay [5]: Inhibition of bovine brain tubulin assembly after 20 mins by spectrophotometric analysis. On the set-up: species or system Bos taurus.
The next assay relates to PBMC. The assay is described as follows: Cytotoxicity against human PBMC cells after 24 hrs by MTT assay. In kind it is cell-based.
In the next assay the test system is Jurkat. The assay is described as follows: Cytotoxicity against human Jurkat cells after 48 hrs by MTT assay. In kind it is functional, cell-based.
The subject of the next assay is L1210. Kind of assay: Cytotoxicity against mouse L1210 cells after 24 hrs by MTT assay. In kind it is functional, cell-based. The note with it: L1210, 24 h.
A further assay concerns REH. The assay is described as follows: Cytotoxicity against human REH cells after 48 hrs by MTT assay. The assay is classed as functional, cell-based.
For assay [6], the system named is MDA-MB-231. The assay is described as follows: Antimigratory activity against human MDA-MB-231 cells at 1 uM after 22 hrs by scratch wound healing assay. In kind it is functional.
Assay [7] has as its system MDA-MB-231. Kind of assay: Antimigratory activity against human MDA-MB-231 cells at 0.5 to 5 uM after 22 hrs by scratch wound healing assay. In kind it is functional, cell-based.
In assay [8] the test system is HeLa. Kind of assay: Cell cycle arrest in human HeLa cells assessed as disorganized microtubules at 62 nM after 24 hrs by Hoechst 33342 staining. In kind it is functional, cell-based.
In assay [9] the test system is HeLa. Kind of assay: Antimitotic activity in human HeLa cells assessed as tubulin staining intensity at 1 nM after 24 hrs by Hoechst 33342 staining. The assay is classed as functional, cell-based.
Assay [10] relates to HeLa. The assay is described as follows: Antimitotic activity in human HeLa cells assessed as tubulin staining intensity at 5 nM after 24 hrs by Hoechst 33342 staining. The assay is classed as functional, cell-based.
The test system of assay [11] is MDA-MB-231. The assay is described as follows: Antimigratory activity against human MDA-MB-231 cells after 6 hrs by Boyden chamber migration assay. The following applies: MDA-MB-231, 6 h. The assay is classed as functional, cell-based.
The test system of assay [12] is HeLa. Kind of assay: Cell cycle arrest in human HeLa cells assessed as disorganized microtubules at 470 nM after 24 hrs by Hoechst 33342 staining. The assay is classed as functional, cell-based.
A further assay concerns NIH3T3. The assay is described as follows: Cytotoxicity against mouse NIH/3T3 cells after 24 hrs by MTT assay. The assay is classed as cell-based. The note with it: NIH3T3, 24 h.
A further assay has as its system HUVEC. Kind of assay: Cytotoxicity against human HUVEC cells after 24 hrs by MTT assay. In kind it is cell-based.
For assay [13], the system named is HeLa. The assay is described as follows: Cell cycle arrest in human HeLa cells assessed as disorganized microtubules at 940 nM after 24 hrs by Hoechst 33342 staining. In kind it is functional, cell-based.

The record followed here is ChEMBL document CHEMBL2375311, “Cytotoxic 3,4,5-trimethoxychalcones as mitotic arresters and cell migration inhibitors” (Eur J Med Chem, 2013).

Activity calls are given as the source filed them. The calls are words filed in the database; no cut-off is given here.

On to `O=C(/C=C/c1ccccc1)c1ccccc1` [CHALCONE], for which the Activity with HeLa [1] is above 50000 nM. In addition, the minimal effective concentration with HeLa [2] and in the assay on HeLa [4] was above 50 µM each time. Moreover, in the assay on HeLa [3], the concentration giving a half-maximal response (EC50) is above 50 µM. For the same compound, the concentration for half-maximal inhibition (IC50) was above 10 µM in assay [5], 27 µM with PBMC, 17.1 µM in the assay with Jurkat and above 100 µM with L1210.
As to `COc1ccc(/C=C/C(=O)c2ccc3c(c2)OCO3)c(OC)c1OC`, in the assay with HeLa [1], the Activity was above 50000 nM. The minimal effective concentration in the assay on HeLa [2] and in the assay with HeLa [4] was above 50 µM each time. The EC50 in the assay on HeLa [3] is above 50 µM. Also, the IC50 was above 10 µM in assay [5]; 81.2 µM in the assay with PBMC; 30 µM in the assay with Jurkat; 23.6 µM in the assay with REH; 47.5 µM in the assay with L1210.
`COc1cc(C(=O)/C=C/c2ccc(F)cc2)cc(OC)c1OC` displayed an IC50 in the assay on L1210 of 46.5 µM.
Same read-out and setting: next, `COc1cc(C(=O)/C=C/c2cc(Cl)cc(Cl)c2)cc(OC)c1OC`: 44 µM; `COc1cc(C(=O)/C=C/c2ccc(Br)cc2)cc(OC)c1OC`: above 100 µM; `COc1cc(C(=O)/C=C/c2ccc(C)o2)cc(OC)c1OC`: 46.5 µM.
For `COc1cc(C(=O)/C=C/c2ccc3ccccc3c2)ccc1O`, in the assay with HeLa [1], the Activity stood at 1400 nM. In addition, the figures for the minimal effective concentration with HeLa [2] and with HeLa [4] were 1.1 µM and 2.2 µM, respectively. Further, the concentration giving a half-maximal response (EC50) in the assay on HeLa [3] was found to be 3.3 µM. The IC50 came to 3.6 µM in assay [5]; 35.6 µM in the assay with PBMC; 5.9 µM in the assay on Jurkat; 2.58 µM in the assay on REH; 54 µM in the assay on L1210.
As to `COc1cc(/C=C/C(=O)c2cc(OC)c(OC)c(OC)c2)ccc1O`, in the assay with L1210, the IC50 is above 100 µM.
In the assay with MDA-MB-231 [6], `COc1cc2c(c(OC)c1OC)-c1ccc(OC)c(=O)cc1[C@@H](NC(C)=O)CC2` [COLCHICINE] came in with an Activity of 74%. In addition, the outcome in the assay on MDA-MB-231 [7], with HeLa [8] and in the assay with HeLa [10] was Active. Besides, the result in the assay on HeLa [9] was inactive.
`COc1cc(C(=O)/C=C/c2ccc([N+](=O)[O-])cc2)cc(OC)c1OC` returned a concentration for half-maximal inhibition (IC50) in the assay on L1210 above 100 µM.
Still for that read-out and setting: next, `COc1cc(OC)c(/C=C/C(=O)c2cc(OC)c(OC)c(OC)c2)c(OC)c1`: 62.5 µM.
Consider `COc1cc(C(=O)/C=C/c2ccc(N(C)C)cc2)cc(OC)c1OC` (mixture of isomers), for which the IC50 in the assay on MDA-MB-231 [11] was 0.656 µM; in assay [5], 2.8 µM; with PBMC it was 92.5 µM; in the assay on NIH3T3 it was 66 µM; in the assay with HUVEC, above 100 µM; with Jurkat, 1.2 µM. The figures for the IC50 with REH and in the assay with L1210 were 1.05 µM and 30 µM, respectively. Further, the figures for the Activity with MDA-MB-231 [6] and in the assay on HeLa [1] were 54% and 200 nM, respectively. Further, the outcome in the assay with HeLa [12], in the assay with MDA-MB-231 [7] and with HeLa [10] was Active. Besides, the result in the assay with HeLa [9] was inactive. Further, the EC50 with HeLa [3] was found to be 0.357 µM.
For `COc1cc(C(=O)/C=C/c2ccc(C)cc2)cc(OC)c1OC`, the IC50 with L1210 came to 50.5 µM.
Still for that read-out and setting: as for `COc1cc(C(=O)/C=C/c2c(Cl)cccc2Cl)cc(OC)c1OC`, the figure is 50.5 µM; as for `COc1cc(C(=O)/C=C/c2ccc(Cl)c(Cl)c2)cc(OC)c1OC`, 44 µM.
On the same count and under the same terms, as for `COc1cc(C(=O)/C=C/c2ccc(Cl)cc2)cc(OC)c1OC`, the figure is 44.5 µM.
The compound `COc1cc(C(=O)/C=C/c2ccc(Cl)c(C(F)(F)F)c2)cc(OC)c1OC` displayed an IC50 in the assay on L1210 of 47.5 µM.
Same read-out and setting: as for `COc1ccc(/C=C/C(=O)c2cc(OC)c(OC)c(OC)c2)cc1`, the figure is 48 µM; as for `COc1cc(OC)c(OC)cc1/C=C/C(=O)c1cc(OC)c(OC)c(OC)c1`, 42.5 µM; as for `CCCCOc1ccc(/C=C/C(=O)c2cc(OC)c(OC)c(OC)c2)cc1`, above 100 µM.
The same measure, in the same setting: next, `COc1cc(C(=O)/C=C/c2cccc([N+](=O)[O-])c2)cc(OC)c1OC`: above 56 µM; `COc1cc(/C=C/C(=O)c2cc(OC)c(OC)c(OC)c2)cc(OC)c1OC`: above 100 µM.
For the compound `COc1cc(C(=O)/C=C/c2ccc(Cl)cc2Cl)cc(OC)c1OC`, it took 52.5 µM to reach half-maximal inhibition with L1210 (IC50).
`COc1cc(C(=O)/C=C/c2ccc3ccccc3c2)cc(OC)c1OC`: the IC50 stood at 1.09 µM with MDA-MB-231 [11]; 2.2 µM in assay [5]; 18 µM in the assay with PBMC; 34 µM in the assay with NIH3T3; 37 µM in the assay on HUVEC; 0.5 µM in the assay with Jurkat. Also, the IC50 in the assay on REH was determined as 0.73 µM; in the assay with L1210, 26 µM. In addition, the results for the Activity in the assay on MDA-MB-231 [6] and in the assay with HeLa [1] were 46% and 397 nM, respectively. Besides, the outcome with MDA-MB-231 [7], with HeLa [13] and in the assay on HeLa [10] was Active. Also, the result in the assay with HeLa [9] was inactive. Further, in the assay with HeLa [3], the half-maximal effective concentration (EC50) is 0.684 µM.
